From US9072734B2, “Quaternary ammonium salt compounds” (Teijin Pharma Limited, priority 2009, dated 2015)
Counter-ions that a name gives are not always drawn.

Molecular target: T1, human β2 adrenergic receptor (Homo sapiens, UniProt P07550)
T1 construct: expressed in transfected cells; host or cells: CHO-K1
Assay: Whole-cell cAMP Flashplate assay using CHO-K1 cells stably expressing human β2 adrenergic receptor
Type: cell-based
Settings: cAMP production
Method: The β2 adrenergic receptor, which couples to Gs proteins, activates adenylate cyclase upon agonist binding to the receptor. As a result, cAMP is produced in cells. The activation ability of the β2 adrenergic receptor can be measured by measuring the amount of the cAMP with cAMP-Screen System (Applied Biosystems).
CHO-K1 cells expressing the human β2 adrenergic receptor suspended in Ham's F-12 media containing 10% FBS were seeded into 96-well plates at a volume of 100 μL/well. Next day, they were washed with 200 μL PBS(−), to which 80 μL of 0.5 mM IBMX solution (Ham's F-12 media containing 0.05% BSA) was then added, followed by incubation for 20 minutes at 37° C. in the presence of 5% carbon dioxide. 20 μL of 9 concentrations of test compound solutions (0.5 mM IBMX solution containing 1% DMSO) prepared at concentrations in a range of 0.01-1000 nM with 2-fold serial dilution) were added, followed by incubation for 20 minutes at 37° C. in the presence of 5% carbon dioxide. Then, 100 μL of Assay/Lysis Buffer (a reagent that comes with cAMP Screen System) was added. The cells were lysed by pipetting, further incubated for 30 minutes at 37° C., and then frozen at −80° C. After several days, samples, thawed at room temperature, were treated according to the protocol of cAMP Screen System, and then chemiluminescence was measured by EnVision (PerkinElmer, Inc.). The amount of cAMP was calculated from the standard curve for the standard attached to cAMP Screen System.
The concentrations of a test compound at which 50% of its maximal effect is reached (EC50 values) were analyzed by a four-parameter logistic model using XLfit4 (IDBS, Ltd.) for the amounts of cAMP production at different concentrations of the test compounds.

T1 sequence (P07550 whole entry): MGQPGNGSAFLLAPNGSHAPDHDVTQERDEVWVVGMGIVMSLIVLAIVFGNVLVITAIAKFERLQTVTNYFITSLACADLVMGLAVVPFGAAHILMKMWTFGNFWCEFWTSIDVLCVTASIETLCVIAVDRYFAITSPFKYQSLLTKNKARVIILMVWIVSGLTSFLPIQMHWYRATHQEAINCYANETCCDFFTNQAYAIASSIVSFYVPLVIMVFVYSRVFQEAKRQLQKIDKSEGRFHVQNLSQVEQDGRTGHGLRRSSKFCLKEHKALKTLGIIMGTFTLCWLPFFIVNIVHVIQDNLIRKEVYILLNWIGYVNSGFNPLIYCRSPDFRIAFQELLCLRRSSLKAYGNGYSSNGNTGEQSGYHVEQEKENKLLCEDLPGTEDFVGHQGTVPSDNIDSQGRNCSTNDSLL

`C[N+]1(C)[C@@H]2CC(OC(=O)Nc3cc(CCCC(=O)Nc4ccc5cc(CNC[C@H](O)c6ccc(O)c7[nH]c(=O)ccc67)ccc5c4)ccc3-c3ccccc3)C[C@H]1[C@@H]1O[C@@H]12` (stereo partly drawn) [Example 35, (1R,2R,4S,5S,7S)-7-({[5-(3-{[6-({[(2R)-2-hydroxy-2-(8-hydroxy-2-oxo-1,2-dihydroquinolin-5-yl)ethyl]amino}methyl)naphthalen-2-yl]carbamoyl}propyl)-2-phenylphenyl]carbamoyl}oxy)-9,9-dimethyl-3-oxa-9-azatricyclo[3.3.1.0^2,4]nonan-9-ium trifluoroacetate] and `C[N+]1(C)[C@@H]2CC(OC(=O)Nc3cc(CCC(=O)Nc4ccc5cc(CNC[C@H](O)c6ccc(O)c7[nH]c(=O)ccc67)ccc5c4)ccc3-c3ccccc3)C[C@H]1[C@@H]1O[C@@H]12` (stereo partly drawn) [Example 40, (1R,2R,4S,5S,7S)-7-({[5-(2-{[6-({[(2R)-2-hydroxy-2-(8-hydroxy-2-oxo-1,2-dihydroquinolin-5-yl)ethyl]amino}methyl)naphthalen-2-yl]carbamoyl}ethyl)-2-phenylphenyl]carbamoyl}oxy)-9,9-dimethyl-3-oxa-9-azatricyclo[3.3.1.0^2,4]nonan-9-ium trifluoroacetate] are within 1.5-fold of each other in EC50: 2.7 nM for the first, 3.4 nM for the second.

First: C[N+]1(CCOc2ccccc2)CCC(OC(=O)Nc2cc(CCC(=O)Nc3ccc(CNC[C@H](O)c4ccc(O)c5[nH]c(=O)ccc45)cc3)ccc2-c2ccccc2)CC1 (stereo partly drawn) [Example 57, 4-({[5-(2-{[4-({[(2R)-2-hydroxy-2-(8-hydroxy-2-oxo-1,2-dihydroquinolin-5-yl)ethyl]amino}methyl)phenyl]carbamoyl}ethyl)-2-phenylphenyl]carbamoyl}oxy)-1-methyl-1-(2-phenoxyethyl)piperidin-1-ium trifluoro acetate]
Second: C[N+]1(C)CCC(OC(=O)Nc2cc(OCC(=O)Nc3ccc(CNC[C@H](O)c4ccc(O)c5[nH]c(=O)ccc45)cc3)ccc2-c2ccccc2)CC1 [Example 64, 4-({[5-(2-{[4-({[(2R)-2-hydroxy-2-(8-hydroxy-2-oxo-1,2-dihydroquinolin-5-yl)ethyl]amino}methyl)phenyl]carbamoyl}methoxy)-2-phenylphenyl]carbamoyl}oxy)-1,1-dimethylpiperidin-1-ium trifluoroacetate]
The EC50 of the first is 14-fold lower: 2.7 nM for the first, 38 nM for the second.

Going from `C[N+]1(C)CCC(OC(=O)Nc2cc(OCCCCCCNC[C@H](O)c3ccc(O)c4[nH]c(=O)ccc34)ccc2-c2ccccc2)CC1` [Example 59, 4-[({5-[(6-{[(2R)-2-hydroxy-2-(8-hydroxy-2-oxo-1,2-dihydroquinolin-5-yl)ethyl]amino}hexyl)oxy]-2-phenylphenyl}carbamoyl)oxy]-1,1-dimethylpiperidin-1-ium trifluoroacetate] to `C[N+]1(C)CCC(OC(=O)Nc2cc(OCCCCCCCCCNC[C@H](O)c3ccc(O)c4[nH]c(=O)ccc34)ccc2-c2ccccc2)CC1` [Example 60, 4-[({5-[(9-{[(2R)-2-hydroxy-2-(8-hydroxy-2-oxo-1,2-dihydroquinolin-5-yl)ethyl]amino}nonyl)oxy]-2-phenylphenyl}carbamoyl)oxy]-1,1-dimethylpiperidin-1-ium trifluoroacetate], the EC50 rises from 0.2 nM to 1.2 nM (6-fold).

`C[N+]1(C)CCC(OC(=O)Nc2cc(CCC(=O)NCc3ccc(CNC[C@H](O)c4ccc(O)c5[nH]c(=O)ccc45)cc3)ccc2-c2ccccc2)CC1` [Example 65, 4-[({5-[2-({[4-({[(2R)-2-hydroxy-2-(8-hydroxy-2-oxo-1,2-dihydroquinolin-5-yl)ethyl]amino}methyl)phenyl]methyl}carbamoyl)ethyl]-2-phenylphenyl}carbamoyl)oxy]-1,1-dimethylpiperidin-1-ium trifluoroacetate] and `C[N+]1(C)CCC(OC(=O)Nc2cc(CCCC(=O)NCc3ccc(CNC[C@H](O)c4ccc(O)c5[nH]c(=O)ccc45)cc3)ccc2-c2ccccc2)CC1` [Example 66, 4-[({5-[3-({[4-({[(2R)-2-hydroxy-2-(8-hydroxy-2-oxo-1,2-dihydroquinolin-5-yl)ethyl]amino}methyl)phenyl]methyl}carbamoyl)propyl]-2-phenylphenyl}carbamoyl)oxy]-1,1-dimethylpiperidin-1-ium trifluoroacetate] are within 1.5-fold of each other in EC50: 14.5 nM for the first, 12.6 nM for the second.
